Results from patent publication US20080069809A1, “Compositions and methods for the diagnosis and treatment of cancer” (priority 2006, published 2008).

How the values were obtained:
HL60 [1] = experiment: Apoptosis (sub-G1 DNA by FACS, caspase-3 activation) in HL60 leukemic cells; assay type: cell-based
Description: (§1) The myeloid leukemic cell lines HL60, NB60, NB4, U937, K562 and KG1a were all grown in RPMI 1640 medium (Life Technologies, Paisley, United Kingdom) supplemented with 10% v/v fetal calf serum (Sear Laboratories International Crawley, United Kingdom), 100 U/mL penicillin, and 100 μg/mL streptomycin (Sigma Aldrich, Poole, United Kingdom) at 37° C. and 5% v/v CO2. AML blasts were isolated from patient bone marrow aspirates and peripheral blood of eight patients at diagnosis or relapse. Patients were not receiving AML therapy at time of sampling. Blasts were isolated by Ficoll density centrifugation and were cultured in serum-free insulin transferrin selenium-positive (ITS+) medium (Life Technologies) containing 300 ng/mL stem cell factor (SCF) and 10 ng/mL interleukin 3 (IL3; R and D Systems, Abingdon, United Kingdom) and antibiotics. […] Normal myeloblasts were isolated from cord blood or adult mobilized peripheral blood. Briefly, CD34^+ cells were indirectly selected from the mononuclear cell preparations using antibody-coated magnetic beads (Miltenyi Biotec, United Kingdom).
To determine the effects of ingenol-3-angelate (PEP005), cells were incubated for up to 5 days with medium alone or PEP005 at a range of concentrations from 0.2 nM to 20 μM. PEP005 was extracted from Euphorbia peplus and supplied as a 98.5% pure preparation by Peplin Limited (Brisbane, Australia) as a dry pellet and was made up to a stock of […] in acetone on a weekly basis. Stocks were stored at 4° C. and diluted into medium when required. Final acetone concentration was never more than 0.1% v/v. Apoptosis and differentiation were assessed after 1 to 5 days.

K562 [2] = details: less sensitive, treated 5 days
Description: as §1
(§2) To determine the effects of ingenol-3-angelate (PEP005), cells were incubated for up to 5 days with medium alone or PEP005 at a range of concentrations from 0.2 nM to 20 μM. […] Apoptosis and differentiation were assessed after 1 to 5 days.

U937 [3] = details: sub-G1 DNA by FACS, treated 5 days
Description: as §1, §2

U937 [4] = experiment: Differentiation (CD11b expression) in U937 cells; assay type: cell-based
Description: (§3) The myeloid leukemic cell lines HL60, NB60, NB4, U937, K562 and KG1a were all grown in RPMI 1640 medium (Life Technologies, Paisley, United Kingdom) supplemented with 10% v/v fetal calf serum (Sear Laboratories International Crawley, United Kingdom), 100 U/mL penicillin, and 100 μg/mL streptomycin (Sigma Aldrich, Poole, United Kingdom) at 37° C. and 5% v/v CO2. AML blasts were isolated from patient bone marrow aspirates and peripheral blood of eight patients at diagnosis or relapse. Patients were not receiving AML therapy at time of sampling. Blasts were isolated by Ficoll density centrifugation and were cultured in serum-free insulin transferrin selenium-positive (ITS+) medium (Life Technologies) containing 300 ng/mL stem cell factor (SCF) and 10 ng/mL interleukin 3 (IL3; R and D Systems, Abingdon, United Kingdom) and antibiotics. Blast purity ranged from 80% to 95%, as assessed by expression of CD34. Normal myeloblasts were isolated from cord blood or adult mobilized peripheral blood. Briefly, CD34^+ cells were indirectly selected from the mononuclear cell preparations using antibody-coated magnetic beads (Miltenyi Biotec, United Kingdom).
(§4) Cell differentiation was determined by staining of cells with anti-CD11b antibody as a general early marker of myeloid differentiation. In studies with HL60 cells, PEP005-treated and 20 nM phorbol myristate (PMA)-treated (Sigma Aldrich) cells were also assessed for their ability to phagocytose complement-coated yeast, a marker of a fully differentiated myeloid cell, as previously described (Toksoz et al, Leukemia Res 6:491-498, 1982). The ingestion of three or more yeasts was taken as a positive result. In normal cord blood or adult bone marrow myeloblasts, loss of CD34 was taken as a marker of differentiation. Isotype-matched controls were used and all antibodies were from DAKO (Cambridge, United Kingdom). […] Images were captured with a SPOT2 cameria (Diagnostic Instructions, Sterling Heights, Mich.) and analyzed using Image-Pro 4.0 software (Media Cybernetics, Silver Spring, Md.).

K562 [5] = experiment: Differentiation (CD11b expression) in K562 cells; assay type: cell-based
Description: (§5) The myeloid leukemic cell lines HL60, NB60, NB4, U937, K562 and KG1a were all grown in RPMI 1640 medium (Life Technologies, Paisley, United Kingdom) supplemented with 10% v/v fetal calf serum (Sear Laboratories International Crawley, United Kingdom), 100 U/mL penicillin, and 100 μg/mL streptomycin (Sigma Aldrich, Poole, United Kingdom) at 37° C. and 5% v/v CO2. AML blasts were isolated from patient bone marrow aspirates and peripheral blood of eight patients at diagnosis or relapse. Patients were not receiving AML therapy at time of sampling. […] Blast purity ranged from 80% to 95%, as assessed by expression of CD34. […]
as §4, with “1982).” for “1982). The ingestion of three or more yeasts was taken as a positive result. In normal cord blood or adult bone marrow myeloblasts, loss of CD34 was taken as a marker of differentiation. Isotype-matched controls were used and all antibodies were from DAKO (Cambridge, United Kingdom).”

KG1a = experiment: Differentiation (CD11b expression) in KG1a cells; assay type: cell-based
Description: as §3, §4

HL60 [6] = experiment: Phagocytosis of complement-coated yeast by HL60 cells; assay type: cell-based; details: after 3 days of treatment, PMA 20 nM
Description: Cell differentiation was determined by staining of cells with anti-CD11b antibody as a general early marker of myeloid differentiation. In studies with HL60 cells, PEP005-treated and 20 nM phorbol myristate (PMA)-treated (Sigma Aldrich) cells were also assessed for their ability to phagocytose complement-coated yeast, a marker of a fully differentiated myeloid cell, as previously described (Toksoz et al, Leukemia Res 6:491-498, 1982). The ingestion of three or more yeasts was taken as a positive result. In normal cord blood or adult bone marrow myeloblasts, loss of CD34 was taken as a marker of differentiation. Isotype-matched controls were used and all antibodies were from DAKO (Cambridge, United Kingdom). […] Cells were also used to prepare cytospins, which were then differentially stained using a commercial May-Grünwald-Ginesa stain (Diff-Kwik; Gamidor, Abingdon, United Kingdom) to identify cells with a blast or differentiated or apoptotic morphology. Slides were examined using a Zeiss III RS brightfield microscope equipped with a 40×/0.75 water-immersion objective (Carl Zeiss, Jena, Germany). Images were captured with a SPOT2 cameria (Diagnostic Instructions, Sterling Heights, Mich.) and analyzed using Image-Pro 4.0 software (Media Cybernetics, Silver Spring, Md.).

Normal CD34+ myeloblasts = experiment: Differentiation of normal CD34+ myeloblasts (loss of CD34, morphology); assay type: cell-based, human; details: doses of 20 nM to 2.0 μM PEP005
Description: as §5
as §4, with “1982).” for “1982). The ingestion of three or more yeasts was taken as a positive result. In normal cord blood or adult bone marrow myeloblasts, loss of CD34 was taken as a marker of differentiation. Isotype-matched controls were used and all antibodies were from DAKO (Cambridge, United Kingdom).”

PKC-δ = target: T1, PKC-δ (Homo sapiens, UniProt Q05655); experiment: PKC-δ cleavage to 40-kDa fragment in HL60 cells (Western blotting); assay type: cell-based; details: 20 nM PEP005 for up to 9 hours
T1 construct: endogenous in cells; host or cells: HL60
Description: PKC isoenzyme expression in leukemic cell lines was determined by Western blotting. Cells (0.5×10^6) were lysed in lysis buffer (20 mM Tris [tris(hydroxymethyl-aminomethane]-HCl, pH 7.4, containing 150 mM NaCl, 0.5 mM EDTA [ethylenediaminetertraacetic acid], 1 mM dithiothreitol, 1 mM phenymethlsulfonylfuoride, 10 μg/mL of aprotinin, leupeptin, and pepstatin A, and 1% Triton-X-100). the lysate was spun at 1000 g for 10 minutes to isolate nuclei and was then combined 1:1 with sodium dodecyl sulfate (SDS) sample buffer and boiled for 5 minutes. The extracts were then analyzed by Western blotting using antibodies to the major isoenzymes found in myeloid cells, namely PKC-α, PKC-β, PKC-δ and PKC-ξ (all purchased from Santa Cruz Biotechnology, Santa Cruz, Calif.). Blots were developed using an enhanced chemiluminescence (ECL) method (Amersham Pharmacia, Buckinghamshire, United Kingdom).

EGFP-tagged mouse PKC-δ = EGFP-tagged mouse PKC-δ (Mus musculus, UniProt P28867); details: KG1a
Description: KG1a cells were transfected with PKC-δ-EGFP or pEGFP-N1 (vector control). At 24 hours after transfection, cells were treated with 0, 0.2, 2 and 20 μM PEP005 and cytospins prepared after 15 minutes. Slides were fixed with 2% v/v paraformaldehyde in PBS for 20 minutes, rinsed briefly in PBS and mounted in Vectashield containing DAPI (4.6 diamidino-2-phenylindole; Vector Laboratories, Burlingame, Calif.). Slides were examined using a Leica Fluorescence microscope (Leica, Heidelberg, Germany) fitted with ×60 oil immersion objective. Images were captured using a Hamanatsu C4742-95 camera (Grafter Imaging, Austin, Tex.) and analyzed using OpenLab 3.1 software (Improvision, Coventry, United Kingdom).

EGFP-tagged mouse PKC-δ, sequence (P28867 whole entry): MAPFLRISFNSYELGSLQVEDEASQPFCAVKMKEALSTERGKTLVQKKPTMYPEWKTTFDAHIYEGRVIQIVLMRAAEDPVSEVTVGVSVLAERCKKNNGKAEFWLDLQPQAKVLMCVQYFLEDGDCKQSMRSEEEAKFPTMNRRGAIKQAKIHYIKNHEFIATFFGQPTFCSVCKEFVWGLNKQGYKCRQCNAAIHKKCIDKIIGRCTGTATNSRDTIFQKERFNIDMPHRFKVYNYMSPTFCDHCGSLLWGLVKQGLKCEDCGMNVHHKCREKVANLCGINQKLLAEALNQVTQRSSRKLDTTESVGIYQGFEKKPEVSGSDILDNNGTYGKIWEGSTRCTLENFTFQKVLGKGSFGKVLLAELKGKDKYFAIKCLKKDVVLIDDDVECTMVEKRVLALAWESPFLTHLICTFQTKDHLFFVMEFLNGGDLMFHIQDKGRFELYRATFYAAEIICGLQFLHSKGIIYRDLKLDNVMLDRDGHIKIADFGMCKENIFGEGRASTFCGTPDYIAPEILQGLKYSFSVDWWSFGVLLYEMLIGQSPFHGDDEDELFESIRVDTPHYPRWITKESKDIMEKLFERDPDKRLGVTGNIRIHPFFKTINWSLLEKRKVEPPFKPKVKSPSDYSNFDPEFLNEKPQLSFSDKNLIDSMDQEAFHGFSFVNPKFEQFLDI
T1 sequence (Q05655 whole entry, the tested form may be a part): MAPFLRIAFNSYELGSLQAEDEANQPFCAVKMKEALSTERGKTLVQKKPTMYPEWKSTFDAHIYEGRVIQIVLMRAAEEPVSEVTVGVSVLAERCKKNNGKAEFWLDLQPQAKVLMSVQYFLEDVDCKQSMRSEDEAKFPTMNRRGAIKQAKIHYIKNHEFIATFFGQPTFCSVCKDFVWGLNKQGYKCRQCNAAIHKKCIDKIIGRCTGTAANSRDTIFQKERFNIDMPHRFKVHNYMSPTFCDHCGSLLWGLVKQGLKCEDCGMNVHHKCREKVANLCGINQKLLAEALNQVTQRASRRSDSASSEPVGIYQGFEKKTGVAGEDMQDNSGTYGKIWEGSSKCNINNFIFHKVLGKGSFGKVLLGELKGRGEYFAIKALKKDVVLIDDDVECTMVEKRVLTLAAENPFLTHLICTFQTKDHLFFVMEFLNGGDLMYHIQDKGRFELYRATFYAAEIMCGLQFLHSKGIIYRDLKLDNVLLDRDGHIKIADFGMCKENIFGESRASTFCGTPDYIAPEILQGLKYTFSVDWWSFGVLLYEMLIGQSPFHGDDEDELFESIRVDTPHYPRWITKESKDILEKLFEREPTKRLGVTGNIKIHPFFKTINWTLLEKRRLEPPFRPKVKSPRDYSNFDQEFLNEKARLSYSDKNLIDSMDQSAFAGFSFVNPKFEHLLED

## C/C=C(/C)C(=O)O[C@H]1C(C)=C[C@]23C(=O)[C@@H](C=C(CO)[C@@H](O)[C@]12O)[C@H]1[C@@H](C[C@H]3C)C1(C)C [PEP005, ingenol-3-angelate]
HL60 [1]; after 3 days of treatment, PMA 20 nM
  apoptosis (caspase-3 activity): apoptosis was the dominant effect
HL60 [1]; sub-G1 DNA by FACS, treated 5 days
  PEP005 concentration with optimal effect, apoptosis: 20 nM
HL60 [1]; within the first 1 to 2 days of treatment
  fraction of cells entering apoptosis (kinetic study): up to half of the cells entering apoptosis
K562 [2]
  PEP005 concentration with maximal response, apoptosis: 2 µM
U937 [3]
  PEP005 concentration with optimal effect, apoptosis: 20 nM
U937 [4]
  predominant response (kinetic study): expressed CD11b as the predominant response before entering apoptosis
U937 [4]; 10 nM ATRA and 20 nM PEP005 in combination, 5 days
  synergy with ATRA in CD11b differentiation response: able to synergize with ATRA
U937 [4]; treated 5 days
  PEP005 concentration with optimal effect, CD11b expression: 20 nM
K562 [5]
  CD11b expression: did not increase expression of CD11b
KG1a; agent alone
  differentiation response: did not respond
KG1a; even at 20 μM PEP005
  CD11b expression: did not enter apoptosis or show CD11b expression
HL60 [6]
  differentiation to phagocytes (ability to phagocytose yeast): did not lead to production of phagocytic cells
Normal CD34+ myeloblasts
  differentiation (loss of CD34, promyelocyte- and myelocyte-like morphologies): induced to differentiate
PKC-δ
  production of the 40-kDa fragment of PKC-δ: produced rapidly
EGFP-tagged mouse PKC-δ; 200 nM PEP005
  time to translocation of EGFP-tagged PKC-δ to the nuclear region: ≤ 5 min
EGFP-tagged mouse PKC-δ; from cytosol after PEP005 treatment
  translocation of EGFP-PKC-δ: induced its translocation to the nucleus and perinuclear region
